Data from patent publication US20220002279A1, “NOVEL IMIDAZOLE DERIVATIVE” (priority 2018, published 2022).
Values after ≈ are worked out from the molar mass of the structure shown.

Key:
[1] = test system: Escherichia coli strain ATCC25922; assay: Antimicrobial activity, MIC by broth microdilution; type: cell-based; conditions: ATCC25922, 18 h, cation-adjusted Mueller-Hinton broth, about 5×10^5 CFU/mL, 35° C., about 18 hours, read-out: MIC Escherichia coli ATCC25922
Description: (§1) Test Example 4 Evaluation of the Antimicrobial Activity
(§2) For minimum inhibitory concentration (MIC) measurement, the following broth microdilution method was applied as adapted from the standard procedure recommended by the CLSI (Clinical and Laboratory Standards Institute).
(§3) The bacteria used were Pseudomonas aeruginosa strain ATCC27853, Escherichia coli strain ATCC25922, and Klebsiella pneumoniae strain ATCC13883. After culture overnight on a heart infusion agar medium, the cells of a test bacterium were scraped off, and a bacterial solution suspended to have a turbidity of level 0.5 on the McFarland scale was diluted and used as an inoculum solution. The inoculum solution was inoculated in a cation-adjusted Mueller-Hinton broth medium containing a test compound so that the final inoculation concentration was about 5×10^5 CFU/mL, and cultured at 35° C. for about 18 hours. A minimum drug concentration at which no cell growth was visible to the naked eye was designated as MIC. […] In the table, ND represents the case where suppression of the cell growth in a drug concentration-dependent manner was not observed (Not Determined), and NT represents that no test was conducted (Not Tested).

[2] = test system: Pseudomonas aeruginosa strain ATCC27853; assay: Antimicrobial activity, MIC by broth microdilution; type: cell-based; conditions: ATCC27853, 18 h, cation-adjusted Mueller-Hinton broth, about 5×10^5 CFU/mL, 35° C., about 18 hours, read-out: MIC Pseudomonas aeruginosa ATCC27853
Description: as §1, §2, §3

[3] = test system: Klebsiella pneumoniae strain ATCC13883; assay: Antimicrobial activity, MIC by broth microdilution; type: cell-based; conditions: ATCC13883, cation-adjusted Mueller-Hinton broth, about 5×10^5 CFU/mL, 35° C., about 18 hours, read-out: MIC Klebsiella pneumoniae ATCC13883
Description: as §1, §2, §3

[4] = biological target: T1, Escherichia coli LpxC enzyme (Escherichia coli, UniProt P0A725); assay: Inhibitory activity on Escherichia coli LpxC enzyme (fluorescamine method); type: biochemical; conditions: fluorescamine detection; 3.1 nmol/L enzyme, 20 μmol/L substrate, pH 6.5, 120 min; read-out: IC50 (inhibitory activity on Escherichia coli LpxC enzyme, Fluoresamine method)
T1 construct: made in house; host or cells: Escherichia coli
T1 sequence (P0A725 1-305): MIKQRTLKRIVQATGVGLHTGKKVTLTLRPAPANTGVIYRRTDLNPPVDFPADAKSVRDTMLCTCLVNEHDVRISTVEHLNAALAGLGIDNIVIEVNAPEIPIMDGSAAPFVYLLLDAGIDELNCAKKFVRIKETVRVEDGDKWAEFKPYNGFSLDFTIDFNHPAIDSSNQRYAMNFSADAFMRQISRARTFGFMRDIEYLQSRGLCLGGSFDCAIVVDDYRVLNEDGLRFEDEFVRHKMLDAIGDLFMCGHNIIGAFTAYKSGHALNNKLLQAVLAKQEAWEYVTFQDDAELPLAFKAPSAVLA
Protocol: To assay the activity of Escherichia coli LpxC enzyme, LpxC was reacted with its substrate, UDP-3-O-(R-3-hydroxymyristoyl)-N-acetylglucosamine, and the amount of the reaction product was quantified by the amino groups present in the product
The reaction was terminated by the addition of 1.0 mg/mL-fluorescamine dissolved in a solvent obtained by mixing an equal amount of acetonitrile and dimethylformamide with the reaction mixture, and then, a 0.2 mol/L-sodium phosphate buffer solution (pH 8.0) was added thereto, and the amount of the reaction product was detected at an excitation wavelength/fluorescence wavelength=390 nm/495 nm. An inhibition curve was obtained by performing the aforementioned reaction in the presence of various concentrations of test compounds.

Structure (SMILES) | MIC [1] [µg/mL] | MIC [2] [µg/mL] | MIC [3] [µg/mL] | IC50 [4] [nM]
C[C@H](O)c1nccn1Cc1cc(-c2ccc(C#CC3CCOCC3)cc2)on1 [Compound 31, (1S)-1-{1-[(5-{4-[(oxan-4-yl)ethynyl]phenyl}-1,2-oxazol-3-yl)methyl]-1H-imidazol-2-yl) ethan-1-ol] | 1 (≈ 2.65 µM) | > 128 | 2 (≈ 5.3 µM) | 32.8
CNC(=O)C(=O)N1C[C@@H]2[C@@H](C#Cc3ccc(-c4cc(Cn5ccnc5[C@H](C)O)no4)cc3)[C@@H]2C1 [Compound 105, 2-[(1R,5S,6s)-6-({4-[3-({2-[(1S)-1-Hydroxyethyl]-1H-imidazol-1-yl}methyl)-1,2-oxazol-5-yl]phenyl}ethynyl)-3-azabicyclo[3.1.0]hexan-3-yl]-N-methyl-2-oxoacetamide] | 1 (≈ 2.18 µM) | 16 (≈ 34.8 µM) | 1 (≈ 2.18 µM) | 63.8
CC(=O)N1C[C@@H]2[C@@H](C#Cc3ccc(-c4cc(Cn5ccnc5[C@H](C)O)no4)cc3)[C@@H]2C1 [Compound 37, 1-[(1R,5S,6s)-6-({4-[3-({2-[(1S)-1-Hydroxyethyl]-1H-imidazol-1-yl}methyl)-1,2-oxazol-5-yl]phenyl}ethynyl)-3-azabicyclo[3.1.0]hexan-3-yl]ethan-1-one] | 1 (≈ 2.4 µM) | 32 (≈ 76.8 µM) | 2 (≈ 4.8 µM) | 58.2
C[C@H](O)c1nccn1Cc1cc(-c2ccc(C#C[C@@H]3[C@H]4CN(C=O)C[C@@H]34)cc2)no1 [Compound 102, (1R,5S,6s)-6-({4-[5-({2-[(1S)-1-hydroxyethyl]-1H-imidazol-1-yl}methyl)-1,2-oxazol-3-yl]phenyl}ethynyl)-3-azabicyclo[3.1.0]hexane-3-carbaldehyde] | 0.5 (≈ 1.24 µM) | 64 (≈ 159 µM) | 1 (≈ 2.48 µM) | 103
COCC(O)CN1C[C@@H]2[C@@H](C#Cc3ccc(-c4cc(Cn5ccnc5[C@H](C)O)on4)cc3)[C@@H]2C1 (stereo partly drawn) [Compound 85, 1-[(1R,5S,6s)-6-({4-[5-({2-[(1S)-1-hydroxyethyl]-1H-imidazol-1-yl}methyl)-1,2-oxazol-3-yl]phenyl}ethynyl)-3-azabicyclo[3.1.0]hexan-3-yl]-3-methoxypropan-2-ol] | 0.5 (≈ 1.08 µM) | 8 (≈ 17.3 µM) | 0.5 (≈ 1.08 µM) | 96.8
CC(O)CN1CCC(C#Cc2ccc(-c3cc(Cn4ccnc4[C@H](C)O)no3)cc2)CC1 (stereo partly drawn) [Compound 128, 1-[4-((4-[3-({2-[(1S)-1-hydroxyethyl]-1H-imidazol-1-yl]methyl)-1,2-oxazol-5-yl]phenyl}ethynyl)piperidin-1-yl]propan-2-ol] | 8 (≈ 18.4 µM) | > 128 | 16 (≈ 36.8 µM) | 331
COCC(=O)N1C[C@@H]2[C@@H](C#Cc3ccc(-c4cc(Cn5ccnc5[C@H](C)O)no4)cc3)[C@@H]2C1 [Compound 76, 1-[(1R,5S,6s)-6-({4-[3-({2-[(1S)-1-Hydroxyethyl]-1H-imidazol-1-yl}methyl)-1,2-oxazol-5-yl]phenyl}ethynyl)-3-azabicyclo[3.1.0]hexan-3-yl]-2-methoxyethan-1-one] | 1 (≈ 2.24 µM) | 32 (≈ 71.7 µM) | 2 (≈ 4.48 µM) | 38
C[C@H](O)c1nccn1Cc1cc(-c2ccc(C#C[C@@H]3[C@H]4CN(CCCC(=O)O)C[C@@H]34)cc2)no1 [Compound 111, 4-[(1R,5S,6s)-6-({4-[5-({2-[(1S)-1-hydroxyethyl]-1H-imidazol-1-yl}methyl)-1,2-oxazol-3-yl]phenyl}ethynyl)-3-azabicyclo[3.1.0]hexan-3-yl]butanoic acid] | 1 (≈ 2.17 µM) | 8 (≈ 17.4 µM) | 4 (≈ 8.69 µM) | 197
C[C@H](O)c1nccn1Cc1cc(-c2ccc(C#CC3C4COCC34)cc2)on1 (stereo partly drawn) [Compound 46, (1S)-1-{1-[(5-{4-[(3-oxabicyclo[3.1.0]hexan-6-yl)ethynyl]phenyl}-1,2-oxazol-3-yl)methyl]-1H-imidazol-2-yl} ethan-1-ol] | 0.12 (≈ 0.32 µM) | > 32 | 0.12 (≈ 0.32 µM) | 13.4
C[C@H](O)c1nccn1Cc1cc(-c2ccc(C#C[C@@H]3[C@H]4CN(CCCCCC(=O)O)C[C@@H]34)cc2)on1 [Compound 94, 6-[(1R,5S,6s)-6-({4-[3-({2-[(1S)-1-hydroxyethyl]-1H-imidazol-1-yl}methyl)-1,2-oxazol-5-yl]phenyl}ethynyl)-3-azabicyclo[3.1.0]hexan-3-yl]hexanoic acid] | 2 (≈ 4.09 µM) | 16 (≈ 32.7 µM) | 4 (≈ 8.19 µM) | 412
C[C@H](O)c1nccn1Cc1cc(-c2ccc(C#C[C@@H]3[C@H]4CN(C(=O)C(O)CO)C[C@@H]34)cc2)on1 (stereo partly drawn) [Compound 79, 2,3-dihydroxy-1-[(1R,5S,6s)-6-({4-[3-({2-[(1S)-1-hydroxyethyl]-1H-imidazol-1-yl}methyl)-1,2-oxazol-5-yl]phenyl}ethynyl)-3-azabicyclo[3.1.0]hexan-3-yl]propan-1-one] | 2 (≈ 4.32 µM) | 32 (≈ 69.2 µM) | 4 (≈ 8.65 µM) | 92.7
C[C@H](O)c1nccn1Cc1cc(-c2ccc(C#C[C@@H]3[C@H]4CN(CCN)C[C@@H]34)cc2)on1 [Compound 122, (1S)-1-(1-{[5-(4-{[(1R,5S,6s)-3-(2-aminoethyl)-3-azabicyclo[3.1.0]hexan-6-yl]ethynyl}phenyl)-1,2-oxazol-3-yl]methyl}-1H-imidazol-2-yl)ethan-1-ol] | 4 (≈ 9.58 µM) | 4 (≈ 9.58 µM) | 4 (≈ 9.58 µM) | 84.6
CC(O)CN1C[C@@H]2[C@@H](C#Cc3ccc(-c4cc(Cn5ccnc5[C@H](C)O)on4)cc3)[C@@H]2C1 (stereo partly drawn) [Compound 121, 1-[(1R,5S,6s)-6-({4-[5-((2-[(1S)-1-hydroxyethyl]-1H-imidazol-1-yl}methyl)-1,2-oxazol-3-yl]phenyl}ethynyl)-3-azabicyclo[3.1.0]hexan-3-yl]propan-2-ol] | 0.5 (≈ 1.16 µM) | 16 (≈ 37 µM) | 1 (≈ 2.31 µM) | 98.5
C[C@H](O)c1nccn1Cc1cc(-c2ccc(C#CC3CCS(=O)(=O)C3)cc2)on1 (stereo partly drawn) [Compound 119, 3-((4-(3-((2-((S)-1-hydroxyethyl)-1H-imidazol-1-yl)methyl)isoxazol-5-yl)phenyl)ethynyl)tetrahydrothiophene 1,1-dioxide] | 8 (≈ 19.4 µM) | > 128 | 16 (≈ 38.9 µM) | 265
COCC1CC1C#Cc1ccc(-c2cc([C@@H](CN)n3ccnc3[C@H](C)O)no2)cc1 (relative stereo) [Compound 74, (1S)-1-(1-{(1R)-2-amino-1-[5-(4-{[trans-2-(methoxymethyl)cyclopropyl]ethynyl}phenyl)-1,2-oxazol-3-yl]ethyl}-1H-imidazol-2-yl)ethan-1-ol] | 0.12 (≈ 0.295 µM) | 16 (≈ 39.4 µM) | 0.25 (≈ 0.615 µM) | 39.6
C[C@H](O)c1nccn1Cc1cc(-c2ccc(C#C[C@@H]3[C@H]4CN(CCC(=O)O)C[C@@H]34)cc2)on1 [Compound 114, 3-[(1R,5S,6s)-6-({4-[3-({2-[(1S)-1-hydroxyethyl]-1H-imidazol-1-yl}methyl)-1,2-oxazol-5-yl]phenyl}ethynyl)-3-azabicyclo[3.1.0]hexan-3-yl]propanoic acid] | – | 4 (≈ 8.96 µM) | 4 (≈ 8.96 µM) | 291
C[C@H](O)c1nccn1Cc1cc(-c2ccc(C#C[C@@H]3[C@H]4CN(CC(=O)O)C[C@@H]34)cc2)on1 [Compound 110, [(1R,5S,6s)-6-({4-[3-((2-[(1S)-1-hydroxyethyl]-1H-imidazol-1-yl}methyl)-1,2-oxazol-5-yl]phenyl}ethynyl)-3-azabicyclo[3.1.0]hexan-3-yl]acetic acid] | – | – | – | 219
C[C@H](O)c1nccn1[C@H](CN)c1cc(-c2ccc(C#CC3CC3(CO)CO)cc2)on1 (stereo partly drawn) [Compound 131, (1S)-1-(1-{(1R)-2-amino-1-[5-(4-{[2,2-bis(hydroxymethyl)cyclopropyl]ethynyl}phenyl)-1,2-oxazol-3-yl]ethyl}-1H-imidazol-2-yl)ethan-1-ol] | 8 (≈ 18.9 µM) | 16 (≈ 37.9 µM) | 32 (≈ 75.7 µM) | –
